Test results reported in US20260022142A1, “MACROCYCLIC IMMUNOMODULATORS” (Bristol-Myers Squibb Company, priority 2022, published 2026).
Bridge positions count the residues as written; N and C are the ends. Square brackets hold non-standard residues; d marks the D form. Peptide text beside a SMILES is read from it. * marks the point of attachment. Phe(3-CF3) = N[C@@H](Cc1cccc(C(F)(F)F)c1)C(=O)O; Ala(morpholin-4-yl) = N[C@@H](CN1CCOCC1)C(=O)O; Phe(4-COOH) = N[C@@H](Cc1ccc(C(=O)O)cc1)C(=O)O; Bip = N[C@@H](Cc1ccc(-c2ccccc2)cc1)C(=O)O; NH(CH2)14COOH = O=C(O)CCCCCCCCCCCCCCN*; Phe(3-Me) = Cc1cccc(C[C@H](N)C(=O)O)c1; NH(CH2)12COOH = O=C(O)CCCCCCCCCCCCN*; Val(3-OH) = CC(C)(O)[C@H](N)C(=O)O; Cha = N[C@@H](CC1CCCCC1)C(=O)O; PEG4 = NCCOCCOCCOCCOCCC(=O)O; Carboxymethyl = O=C(O)C*; Orn = NCCC[C@H](N)C(=O)O; Dab = NCC[C@H](N)C(=O)O; Nva = CCC[C@H](N)C(=O)O; AEEA = NCCOCCOCC(=O)O

Molecular target: T1, PD-1/PD-L1 interaction (PE-labeled human PD-L1-Ig binding to Jurkat cell line over-expressing human PD-1) (Homo sapiens, UniProt Q15116)
T1 construct: expressed in transfected cells; host or cells: Jurkat
Experiment: Jurkat-PD-1 Cell Binding High-Content Screening Assay (CBA)
Format: cell-based
Details: Jurkat cell line over-expressing human PD-1; PE-labeled PD-L1-Ig 20 nM final; read-out: Jurkat hPD1-PDL1 IC50
Summary of the method: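 First, compound is added to PD-1-expressing Jurkat cells in serum-containing DMEM and left 2 h at 37° C. Next, PE-conjugated PD-L1-Ig is introduced at 20 nM final concentration for 1 hour. Finally, cells are fixed in 4% paraformaldehyde with Hoechst 33342, washed and imaged.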

T1 sequence (Q15116 25-288): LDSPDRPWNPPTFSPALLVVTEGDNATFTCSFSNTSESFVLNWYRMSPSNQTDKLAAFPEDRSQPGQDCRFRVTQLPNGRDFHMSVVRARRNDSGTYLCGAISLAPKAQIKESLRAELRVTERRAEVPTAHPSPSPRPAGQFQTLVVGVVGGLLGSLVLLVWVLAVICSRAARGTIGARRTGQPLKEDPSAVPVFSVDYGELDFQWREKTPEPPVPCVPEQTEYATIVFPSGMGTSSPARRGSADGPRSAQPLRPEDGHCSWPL

Row | Structure (SMILES) | IC50 [nM]
1 | Cc1cccc(C[C@@H]2NC(=O)[C@H](CC(=O)O)NC(=O)[C@H](Cc3ccc(OCC(=O)O)cc3)NC(=O)[C@H](CN3CCOCC3)NC(=O)CSC[C@@H](C(=O)N[C@@H](CCN)C(=O)NCCOCCOCC(=O)NCCOCCOCC(=O)NCCCCCCCCCCCCC(=O)O)NC(=O)[C@H](CO)NC(=O)[C@H](C(C)(C)O)NC(=O)[C@H](CC3CCCCC3)NC(=O)[C@H](CCN)NC(=O)[C@@H](CC(C)C)NC(=O)[C@H](CCCN)NC(=O)[C@H](Cc3ccc(OCC(=O)O)cc3)NC(=O)[C@H](Cc3ccc(-c4ccccc4)cc3)NC(=O)[C@H](Cc3ccc(OCC(=O)O)cc3)NC2=O)c1 [Compound 2896] ({CH2CO}-[Ala(morpholin-4-yl)]Y(Carboxymethyl)D[Phe(3-Me)]Y(Carboxymethyl)[Bip]Y(Carboxymethyl)[Orn][dL][Dab][Cha][Val(3-OH)]SC[Dab][AEEA][AEEA]-{NH(CH2)12COOH}; thioether N-14) | 4.1
2 | Cc1cccc(C[C@@H]2NC(=O)[C@H](CC(=O)O)NC(=O)[C@H](Cc3ccc(OCC(=O)O)cc3)NC(=O)[C@H](CN3CCOCC3)NC(=O)CSC[C@@H](C(=O)N[C@@H](CCN)C(=O)NCCOCCOCC(=O)NCCOCCOCC(=O)NCCCCCCCCCCCCC(=O)O)NC(=O)[C@H](CO)NC(=O)[C@H](C(C)(C)O)NC(=O)[C@H](CC3CCCCC3)NC(=O)[C@H](CCN)NC(=O)[C@@H](CC(C)C)NC(=O)[C@H](CCCN)NC(=O)[C@H](Cc3ccc(C(=O)O)cc3)NC(=O)[C@H](Cc3ccc(-c4ccccc4)cc3)NC(=O)[C@H](Cc3ccc(C(=O)O)cc3)NC2=O)c1 [Compound 2897] ({CH2CO}-[Ala(morpholin-4-yl)]Y(Carboxymethyl)D[Phe(3-Me)][Phe(4-COOH)][Bip][Phe(4-COOH)][Orn][dL][Dab][Cha][Val(3-OH)]SC[Dab][AEEA][AEEA]-{NH(CH2)12COOH}; thioether N-14) | 1.6
3 | Cc1cccc(C[C@@H]2NC(=O)[C@H](CC(=O)O)NC(=O)[C@H](Cc3ccc(OCC(=O)O)cc3)NC(=O)[C@H](CN3CCOCC3)NC(=O)CSC[C@@H](C(=O)N[C@@H](CCN)C(=O)NCCOCCOCC(=O)NCCOCCOCC(=O)NCCCCCCCCCCCCC(=O)O)NC(=O)[C@H](CCC(=O)O)NC(=O)[C@H](C(C)(C)O)NC(=O)[C@H](CC3CCCCC3)NC(=O)[C@H](CCN)NC(=O)[C@@H](CC(C)C)NC(=O)[C@H](CCCN)NC(=O)[C@H](Cc3ccc(C(=O)O)cc3)NC(=O)[C@H](Cc3ccc(-c4ccccc4)cc3)NC(=O)[C@H](Cc3ccc(C(=O)O)cc3)NC2=O)c1 [Compound 2898] ({CH2CO}-[Ala(morpholin-4-yl)]Y(Carboxymethyl)D[Phe(3-Me)][Phe(4-COOH)][Bip][Phe(4-COOH)][Orn][dL][Dab][Cha][Val(3-OH)]EC[Dab][AEEA][AEEA]-{NH(CH2)12COOH}; thioether N-14) | 5.5
4 | Cc1cccc(C[C@@H]2NC(=O)[C@H](CC(=O)O)NC(=O)[C@H](Cc3ccc(OCC(=O)O)cc3)NC(=O)[C@H](CN3CCOCC3)NC(=O)CSC[C@@H](C(=O)N[C@@H](CCN)C(=O)NCCOCCOCC(=O)NCCOCCOCC(=O)NCCCCCCCCCCCCC(=O)O)NC(=O)[C@H](CC(=O)O)NC(=O)[C@H](C(C)(C)O)NC(=O)[C@H](CC3CCCCC3)NC(=O)[C@H](CCN)NC(=O)[C@@H](CC(C)C)NC(=O)[C@H](CCCN)NC(=O)[C@H](Cc3ccc(C(=O)O)cc3)NC(=O)[C@H](Cc3ccc(-c4ccccc4)cc3)NC(=O)[C@H](Cc3ccc(C(=O)O)cc3)NC2=O)c1 [Compound 2899] ({CH2CO}-[Ala(morpholin-4-yl)]Y(Carboxymethyl)D[Phe(3-Me)][Phe(4-COOH)][Bip][Phe(4-COOH)][Orn][dL][Dab][Cha][Val(3-OH)]DC[Dab][AEEA][AEEA]-{NH(CH2)12COOH}; thioether N-14) | 5.4
5 | Cc1cccc(C[C@@H]2NC(=O)[C@H](CC(=O)O)NC(=O)[C@H](Cc3ccc(C(=O)O)cc3)NC(=O)[C@H](CN3CCOCC3)NC(=O)CSC[C@@H](C(=O)N[C@@H](CCN)C(=O)NCCOCCOCC(=O)NCCOCCOCC(=O)NCCCCCCCCCCCCC(=O)O)NC(=O)[C@H](CO)NC(=O)[C@H](C(C)(C)O)NC(=O)[C@H](CC3CCCCC3)NC(=O)[C@H](CCN)NC(=O)[C@@H](CC(C)C)NC(=O)[C@H](CCCN)NC(=O)[C@H](Cc3ccc(C(=O)O)cc3)NC(=O)[C@H](Cc3ccc(-c4ccccc4)cc3)NC(=O)[C@H](Cc3ccc(C(=O)O)cc3)NC2=O)c1 [Compound 2900] ({CH2CO}-[Ala(morpholin-4-yl)][Phe(4-COOH)]D[Phe(3-Me)][Phe(4-COOH)][Bip][Phe(4-COOH)][Orn][dL][Dab][Cha][Val(3-OH)]SC[Dab][AEEA][AEEA]-{NH(CH2)12COOH}; thioether N-14) | 6.2
6 | CCC[C@@H]1NC(=O)CSC[C@@H](C(=O)N[C@@H](CCN)C(=O)NCCOCCOCCOCCOCCC(=O)NCCCCCCCCCCCCC(=O)O)NC(=O)[C@H](CO)NC(=O)[C@H](C(C)(C)O)NC(=O)[C@H](CC2CCCCC2)NC(=O)[C@H](CCN)NC(=O)[C@@H](CC(C)C)NC(=O)[C@H](CCCN)NC(=O)[C@H](Cc2ccc(OCC(=O)O)cc2)NC(=O)[C@H](Cc2ccc(-c3ccccc3)cc2)NC(=O)[C@H](Cc2ccc(OCC(=O)O)cc2)NC(=O)[C@H](Cc2cccc(C(F)(F)F)c2)NC(=O)[C@H](CC(=O)O)NC(=O)[C@H](Cc2ccc(C(=O)O)cc2)NC1=O [Compound 2901] ({CH2CO}-[Nva][Phe(4-COOH)]D[Phe(3-CF3)]Y(Carboxymethyl)[Bip]Y(Carboxymethyl)[Orn][dL][Dab][Cha][Val(3-OH)]SC[Dab][PEG4]-{NH(CH2)12COOH}; thioether N-14) | 24.1
7 | CCC[C@@H]1NC(=O)CSC[C@@H](C(=O)N[C@@H](CCN)C(=O)NCCOCCOCCOCCOCCC(=O)NCCCCCCCCCCCCCCC(=O)O)NC(=O)[C@H](CO)NC(=O)[C@H](C(C)(C)O)NC(=O)[C@H](CC2CCCCC2)NC(=O)[C@H](CCN)NC(=O)[C@@H](CC(C)C)NC(=O)[C@H](CCCN)NC(=O)[C@H](Cc2ccc(OCC(=O)O)cc2)NC(=O)[C@H](Cc2ccc(-c3ccccc3)cc2)NC(=O)[C@H](Cc2ccc(OCC(=O)O)cc2)NC(=O)[C@H](Cc2cccc(C(F)(F)F)c2)NC(=O)[C@H](CC(=O)O)NC(=O)[C@H](Cc2ccc(C(=O)O)cc2)NC1=O [Compound 2902] ({CH2CO}-[Nva][Phe(4-COOH)]D[Phe(3-CF3)]Y(Carboxymethyl)[Bip]Y(Carboxymethyl)[Orn][dL][Dab][Cha][Val(3-OH)]SC[Dab][PEG4]-{NH(CH2)14COOH}; thioether N-14) | 282
8 | CCC[C@@H]1NC(=O)CSC[C@@H](C(=O)N[C@@H](CCN)C(=O)NCCCCCCCCCCCCC(=O)O)NC(=O)[C@H](CO)NC(=O)[C@H](C(C)(C)O)NC(=O)[C@H](CC2CCCCC2)NC(=O)[C@H](CCN)NC(=O)[C@@H](CC(C)C)NC(=O)[C@H](CCCN)NC(=O)[C@H](Cc2ccc(OCC(=O)O)cc2)NC(=O)[C@H](Cc2ccc(-c3ccccc3)cc2)NC(=O)[C@H](Cc2ccc(OCC(=O)O)cc2)NC(=O)[C@H](Cc2cccc(C(F)(F)F)c2)NC(=O)[C@H](CC(=O)O)NC(=O)[C@H](Cc2ccc(C(=O)O)cc2)NC1=O [Compound 2903] ({CH2CO}-[Nva][Phe(4-COOH)]D[Phe(3-CF3)]Y(Carboxymethyl)[Bip]Y(Carboxymethyl)[Orn][dL][Dab][Cha][Val(3-OH)]SC[Dab]-{NH(CH2)12COOH}; thioether N-14) | 27.7
9 | CCC[C@@H]1NC(=O)CSC[C@@H](C(=O)N[C@@H](CCN)C(=O)NCCCCCCCCCCCCCCC(=O)O)NC(=O)[C@H](CO)NC(=O)[C@H](C(C)(C)O)NC(=O)[C@H](CC2CCCCC2)NC(=O)[C@H](CCN)NC(=O)[C@@H](CC(C)C)NC(=O)[C@H](CCCN)NC(=O)[C@H](Cc2ccc(OCC(=O)O)cc2)NC(=O)[C@H](Cc2ccc(-c3ccccc3)cc2)NC(=O)[C@H](Cc2ccc(OCC(=O)O)cc2)NC(=O)[C@H](Cc2cccc(C(F)(F)F)c2)NC(=O)[C@H](CC(=O)O)NC(=O)[C@H](Cc2ccc(C(=O)O)cc2)NC1=O [Compound 2904] ({CH2CO}-[Nva][Phe(4-COOH)]D[Phe(3-CF3)]Y(Carboxymethyl)[Bip]Y(Carboxymethyl)[Orn][dL][Dab][Cha][Val(3-OH)]SC[Dab]-{NH(CH2)14COOH}; thioether N-14) | 518
10 | COC[C@@H]1NC(=O)CSC[C@@H](C(=O)N[C@@H](CCN)C(=O)NCCOCCOCCOCCOCCC(=O)NCCCCCCCCCCCCC(=O)O)NC(=O)[C@H](CO)NC(=O)[C@H](C(C)(C)O)NC(=O)[C@H](CC2CCCCC2)NC(=O)[C@H](CCN)NC(=O)[C@@H](CC(C)C)NC(=O)[C@H](CCCN)NC(=O)[C@H](Cc2ccc(C(=O)O)cc2)NC(=O)[C@H](Cc2ccc(-c3ccccc3)cc2)NC(=O)[C@H](Cc2ccc(C(=O)O)cc2)NC(=O)[C@H](Cc2cccc(C(F)(F)F)c2)NC(=O)[C@H](CC(=O)O)NC(=O)[C@H](Cc2ccc(OCC(=O)O)cc2)NC1=O [Compound 2905] ({CH2CO}-S(Me)Y(Carboxymethyl)D[Phe(3-CF3)][Phe(4-COOH)][Bip][Phe(4-COOH)][Orn][dL][Dab][Cha][Val(3-OH)]SC[Dab][PEG4]-{NH(CH2)12COOH}; thioether N-14) | 70.6
11 | CCC[C@@H]1NC(=O)CSC[C@@H](C(=O)N[C@@H](CCN)C(=O)NCCOCCOCCOCCOCCC(=O)NCCCCCCCCCCCCCCC(=O)O)NC(=O)[C@H](CO)NC(=O)[C@H](C(C)(C)O)NC(=O)[C@H](CC2CCCCC2)NC(=O)[C@H](CCN)NC(=O)[C@@H](CC(C)C)NC(=O)[C@H](CCCN)NC(=O)[C@H](Cc2ccc(C(=O)O)cc2)NC(=O)[C@H](Cc2ccc(-c3ccccc3)cc2)NC(=O)[C@H](Cc2ccc(C(=O)O)cc2)NC(=O)[C@H](Cc2cccc(C(F)(F)F)c2)NC(=O)[C@H](CC(=O)O)NC(=O)[C@H](Cc2ccc(OCC(=O)O)cc2)NC1=O [Compound 2906] ({CH2CO}-[Nva]Y(Carboxymethyl)D[Phe(3-CF3)][Phe(4-COOH)][Bip][Phe(4-COOH)][Orn][dL][Dab][Cha][Val(3-OH)]SC[Dab][PEG4]-{NH(CH2)14COOH}; thioether N-14) | 97.7
